Assay results reported in paper PMC10552749, “Anti-methicillin-resistant Staphylococcus aureus and antibiofilm activity of new peptides produced by a Brevibacillus strain” (PeerJ, 2023).
Values after ≈ are worked out from the molar mass of the structure shown. Values joined by “and” are separate entries in the source; they are usually repeats but may differ in a detail not shown here. Equal entries are not always repeated. Where no end group is shown, it is not given here.

Key:
[1] = tested on: MRSA isolate 2468; assay: Biofilm eradication assay; type: cell-based, Staphylococcus aureus; conditions: vs untreated, p-value < 0.05
Method: (§1) The bacteria were standardized to achieve 1 × 10^8 CFU/mL, and 100 µL of cell suspension was transferred to a 96-well microplate. The plates were incubated at 37 °C for 48 h for biofilm formation. The free bacteria cells were removed from the plates by washing them with PBS. Peptide solutions at the concentrations (0.5–256 µg/mL) were added to the microplate and incubated at 37 °C for 24 h. Subsequently, PBS was used to rewash the plate, and 100 µL of PBS was loaded into each well. The plate was sonicated for 30 min at room temperature, and the samples were taken and made a ten-fold serial dilution. A total of 10 µL of the diluted samples was plated on MH agar for colony count. Vancomycin and untreated samples were used as the positive and negative controls. Only SCD media without bacteria was used as the blank ([Yuan et al., 2019]). The significant difference was evaluated by one-way ANOVA (p-value < 0.05) compared to untreated controls.

[2] = tested on: MRSA isolate 2468; assay: Inhibition of biofilm formation (crystal violet); type: cell-based, Staphylococcus aureus
Method: (§2) The cells were standardized using the same medium to achieve 1 × 10^8 CFU/mL. The cell suspension was mixed with peptide at various concentrations (0.5–256 µg/mL) in a 96-well plate. The plates were then incubated at 37 °C for 48 h. Then, the planktonic bacteria cells were removed from the plates by washing them with PBS. Thereafter, 100 µL of methanol was added to the plate to fix the biofilm-associated cells. The plates were dried and stained with 0.1% crystal violet for 15 min before rinsing twice with PBS. A total of 100 μL of […] was finally added to resolubilize the stained crystal violet. The plates were incubated at 37 °C for 30 min, and the supernatants were transferred to a new 96-well plate. The absorbance at 570 nm was measured by a microplate reader (Thermo Fisher Scientific Inc., Waltham, MA, USA) to determine the biofilm formation. […] One-way ANOVA was used to analyze the significant differences among treated samples compared to the untreated controls at various p-values.

[3] = tested on: MRSA isolate 2468; assay: microbe, parasite or virus in culture; type: cell-based, Staphylococcus aureus
Method: (§3) Wells of 9 mm were punched on the solid media surface by a sterile tip, and 100 µL of purified substance was loaded before incubating the plates at 37 °C for 24 h. […] The result was collected from three independent experiments in which the diameter of the zone of inhibition was measured by a vernier caliper and reported as mean ± SD ([Lei et al., 2020]). The significant difference was determined by Student’s t-test at a p-value of less than 0.05.

[4] = tested on: MRSA isolate 1096; assay: microbe, parasite or virus in culture; type: cell-based, Staphylococcus aureus
Method: as §3

[5] = tested on: MRSA isolate 142; assay: microbe, parasite or virus in culture; type: cell-based, Staphylococcus aureus
Method: as §3

[6] = tested on: S. aureus TISTR 517; assay: microbe, parasite or virus in culture; type: cell-based, Staphylococcus aureus
Method: as §3

[7] = tested on: S. aureus and MRSA biofilms; conditions: statically grown biofilms of S. aureus and MRSA; ref Zapotoczna et al., 2017; cited from earlier work
Excerpt: Biofilm is an important virulence mechanism in many bacterial pathogens. The cells irreversibly adhere to the biotic and abiotic surfaces and are surrounded by an extracellular matrix in response to stress conditions ([Flemming & Wuertz, 2019]). […] S. aureus and MRSA develop a biofilm to decrease or prevent the diffusion of antimicrobial drugs into the cells, resulting in more drug r ...

[8] = tested on: S. aureus TISTR 517 and MRSA isolate 142, 1096, and 2468; assay: microbe, parasite or virus in culture; type: cell-based, Staphylococcus aureus
Method: (§4) The assay was conducted in accordance with the guideline of the Clinical and Laboratory Standard Institute (CLSI). […] The cell suspension was prepared in a 20-fold dilution using Cation-Adjusted Mueller-Hinton broth (CAHMB) as a diluent. A total of 10 µL of the diluted bacterial preparation and 100 µL of pure substances (0.25–64 µg/mL) were loaded into the 96-well plates. The plates were incubated at 37 °C for 24 h. Control wells were performed for broth (CAMHB) and inoculum. Vancomycin was tested as a control drug. The experiment was performed in triplicate for each tested strain.

[9] = tested on: S. aureus TISTR 517 and MRSA isolate 2468; assay: Biofilm eradication assay, statements for both tested bacteria; type: cell-based, Staphylococcus aureus
Method: as §1

[10] = tested on: S. aureus TISTR 517; assay: Inhibition of biofilm formation (crystal violet); type: cell-based; conditions: Staphylococcus aureus, TISTR517, 48 h, read-out: IC50 of biofilm formation
Method: as §2

[11] = tested on: MRSA isolate 2468; assay: microbe, parasite or virus in culture; type: cell-based; conditions: Staphylococcus aureus, 24 h
Method: as §4

[12] = tested on: MRSA isolate 1096; assay: microbe, parasite or virus in culture; type: cell-based; conditions: Staphylococcus aureus, 24 h
Method: as §4

[13] = tested on: MRSA isolate 142; assay: microbe, parasite or virus in culture; type: cell-based; conditions: Staphylococcus aureus, 24 h
Method: as §4

[14] = tested on: S. aureus TISTR 517; assay: microbe, parasite or virus in culture; type: cell-based; conditions: Staphylococcus aureus, TISTR517, 24 h
Method: as §4

[15] = ref Baczek, Walijewski & Kaliszan, 2008, cited from earlier work
[16] = tested on: human erythrocytes; type: cell-based
Method: The Ethics Committee in Human Research at Walailak University has approved this study (WUEC-22-242-01; 15 August 2022). The written consent was obtained from a subject involved in the research. Whole blood (5 mL) was collected from a human volunteer and centrifuged at 700× g for 8 min. The pellets were washed 3 times with PBS before diluting to obtain 0.5% erythrocyte suspension. A total of 50 µL of erythrocytes was added to a 96-well plate, and the purified peptide in PBS (50 μL) was mixed to achieve the final peptide concentration of 1, 2, 4, 8, 16, 32, 64, 128, 256, and 512 µg/mL. The mixtures were then incubated at 37 °C for 1 h. They were further centrifuged at 1,000× g for 10 min, and the supernatant was loaded into a microplate before measuring the absorbance at 540 nm. The positive and negative controls were 1% Triton X-100 and untreated samples, respectively, while PBS was used as a blank control. This assay was carried out in three independent experiments. The percent hemolysis was calculated by the following equation:
%Hemolysis=[Asam−Ablank]/[Apos−Ablank]×100 where Asam is the sample absorbance, Apos and Ablank are the absorbance of positive and blank controls, respectively ([Oddo & Hansen, 2017]).

[17] = Staphylococcus aureus, read-out: Inhibition zone
[18] = Vancomycin (30 μg), mean ± SD, n = 3

For CN[C@H](CC(C)C)C(=O)N[C@H]1C(=O)N[C@@H](CC(N)=O)C(=O)N[C@H]2C(=O)N[C@H]3C(=O)N[C@H](C(=O)N[C@H](C(=O)O)c4cc(O)cc(O)c4-c4cc3ccc4O)[C@H](O)c3ccc(c(Cl)c3)Oc3cc2cc(c3O[C@@H]2O[C@H](CO)[C@@H](O)[C@H](O)[C@H]2O[C@H]2C[C@](C)(N)[C@H](O)[C@H](C)O2)Oc2ccc(cc2Cl)[C@H]1O [Vancomycin], the “Concentration that significantly reduced persistent cells in biofilm” value [1] was 64 µg/mL, the “Biofilm formation (% of untreated) after treatment” value ([2]; 4 μg/mL or 2× MIC, 37 °C 48 h, crystal violet, A570, mean ± SD of three experiments) was 68.25 ± 4.21% and the IC50 ([2]; Staphylococcus aureus, 48 h, read-out: IC50 of biofilm formation) was 5.91 µg/mL (≈ 4.08 µM). It also gave a zone of inhibition at 30 µg/disc [3, 17] of 23.9 ± 0.1 mm, an Inhibition zone [3, 18] of 23.90 mm and a zone of inhibition at 30 µg/disc [4, 17] of 23.1 ± 0.36 mm. For the same compound, the Inhibition zone [4, 18] was 23.10 mm, the zone of inhibition at 30 µg/disc [5, 17] was 23.5 ± 0.59 mm and the Inhibition zone [5, 18] was 23.47 mm. For the same compound, the zone of inhibition at 30 µg/disc ([6]; Staphylococcus aureus, TISTR517, read-out: Inhibition zone) was 20.7 ± 0.23 mm, the Inhibition zone [6, 18] was 20.73 mm and the “Concentration for half-maximal inhibition of biofilms” value [7] was 16.0 to 68.2 µg/mL. For the same compound, the MBC ([8]; Staphylococcus aureus) was 2 µg/mL (≈ 1.38 µM), the MIC ([8]; Staphylococcus aureus) was 2 µg/mL and 1.38 µM and the MBC ([8]; against all tested bacteria) was 2 µg/mL (≈ 1.38 µM). The MIC ([8]; against all tested bacteria) was 2 µg/mL (≈ 1.38 µM), the “Concentration to destroy mature biofilms as multiple of MIC” value ([9]; 128 μg/mL relative to MIC) was 64 × MIC and the “Concentration that completely eradicated biofilm (killed persistent cells)” value ([9]; 48 h preformed biofilms, 24 h treatment, both bacteria) was 128 µg/mL. For the same compound, the IC50 [10] was 4.84 µg/mL (≈ 3.34 µM), the MBC [11] was 2 µg/mL (≈ 1.38 µM) and the MIC [11] was 2 µg/mL (≈ 1.38 µM). The MBC [12] was 2 µg/mL (≈ 1.38 µM), the MIC [12] was 2 µg/mL (≈ 1.38 µM) and the MBC [13] was 2 µg/mL (≈ 1.38 µM). The MIC [13] was 2 µg/mL (≈ 1.38 µM), the MBC [14] was 2 µg/mL (≈ 1.38 µM) and the MIC [14] was 2 µg/mL (≈ 1.38 µM).
In the case of “DAEFGHDSG-NH2 [literature model peptide for RPC retention]”, the RPC retention time ([15]; isocratic elution by 0.1% TFA and ACN) is listed as 3.75 min and the pI [15] is listed as 4.02.
With MFLVVKVLKYVV [BrSPR19-P2] the “Therapeutic index (TI) of hemolysis / hemolysis index threshold” value [16] was 32.
